Key:
Experiment in all cases: Radioligand competition binding and kinetics, CHO-K1 membranes
human 5-HT1D receptor = molecular target: T1, human 5-HT1D receptor (Homo sapiens, UniProt P28221); settings: 5-HT1D
T1 construct: purchased Euroscreen; host or cells: CHO-K1
Protocol: (§1) For kinetics of radioligand competitive binding, serial dilutions were performed from master solution in 100% DMSO to obtain intermediate concentrations 200-fold higher than the concentrations to be tested. Each test sample was diluted 100-fold in the assay buffer and dispensed into the test plate.
5-HT1D Radioligand Binding Assay
Assay buffer: 50 mM Tris (pH 7.4), 4 mM CaCl2, 0.1% ascorbic acid
Washing buffer: 50 mM Tris (pH 7.4)
Membrane: recombinant CHO-K1-5-HT1D membranes thawed on ice and diluted in assay buffer (10 μg/well)
(§2) Ligand: 5-HT (Sigma, H-9523)
Radioligand: [^3H]-CT (Perkin Elmer, TRK1038, diluted in assay buffer for a final concentration of 0.5 nM) Filter plate: GF/B Unifilter plate (Perkin Elmer, 6005177) presoaked in 0.5% PEI for 2 hours at RT.
(§3) Determination of the Kon constant. Radioligand association kinetics on each receptor were performed by adding in the wells of a 96 well plate 50 μL of radioligand and 50 μL of membrane extracts. The samples were incubated for the times reported in Table 3 below at a temperature optimized for each receptor and filtered over a filter plate. After washing the filters 5 times with 0.5 mL of ice-cold washing buffer, 50 μL of Microscint 20 (Packard) were added to the filters and the plates were incubated 15 min on an orbital shaker and then counted for 1 min/well. This allowed determination of the kobs for each radioligand. Association kinetics were performed at 5 different radioligand concentrations optimized for each receptor (see Table 3 below) to determine 5 different kobs. The different kobs were then plotted against the [radioligand] and the K. was calculated using the following equation: kon=(kobs−koff)[radioligand].
(§4) Determination of the Koff constant. Radioligand dissociation kinetics on each receptor were performed by adding in the wells of a 96 well plate 45 μL of radioligand and 45 μL of membrane extracts. The samples were incubated as reported in Table 4 below at a temperature optimized for each receptor until binding equilibrium was reached as determined by the association kinetics experiment. Then, 100 μL of cold competitor (reference ligand) were added at a 200 fold excess (final concentration) for the times reported in Table 4 at the optimized temperature. The samples were then filtered over a filter plate. After washing the filters 5 times with 0.5 mL of ice-cold washing buffer, 50 μL of Microscint 20 (Packard) were added to the filters and the plates were incubated 15 min on an orbital shaker and then counted for 1 min/well. This allowed determination of the koff for each radioligand.
Determination of IC50 and Ki constant for each test compound. Radioligand competition binding on each receptor were performed by adding in the wells of a 96 well plate […] of test compound at increasing concentration as reported in Table 5 below, 25 μL of radioligand and 25 μL of membrane extracts. The samples were incubated for 60 min (or 4 hours for a second experiment on 5-HT2B receptors) at a temperature optimized for each receptor and then filtered over a filter plate. After washing the filters 5 times with 0.5 mL of ice-cold washing buffer, 50 μL of Microscint 20 (Packard) were added to the filters and the plates were incubated 15 min on an orbital shaker and then counted for 1 min/well. The test compounds were tested in duplicate at the nanomolar concentrations reported below in Table 5.
Determination of kon and koff constants for each test compound. Each compound was first assessed in a pilot experiment to evaluate its effect on the kinetic binding of each receptor-radioligand pair. These pilot experiments were performed at on compound concentration and were composed of 10 time-points measurements in duplicate (2, 5, 10, 20, 30, 45, 60, 90, 120 and 150 minutes).

human 5-HT1A receptor = molecular target: T2, human 5-HT1A receptor (Homo sapiens, UniProt P08908); settings: 5-HT1A
T2 construct: purchased Euroscreen; host or cells: CHO-K1
T2 sequence (P08908 1-422): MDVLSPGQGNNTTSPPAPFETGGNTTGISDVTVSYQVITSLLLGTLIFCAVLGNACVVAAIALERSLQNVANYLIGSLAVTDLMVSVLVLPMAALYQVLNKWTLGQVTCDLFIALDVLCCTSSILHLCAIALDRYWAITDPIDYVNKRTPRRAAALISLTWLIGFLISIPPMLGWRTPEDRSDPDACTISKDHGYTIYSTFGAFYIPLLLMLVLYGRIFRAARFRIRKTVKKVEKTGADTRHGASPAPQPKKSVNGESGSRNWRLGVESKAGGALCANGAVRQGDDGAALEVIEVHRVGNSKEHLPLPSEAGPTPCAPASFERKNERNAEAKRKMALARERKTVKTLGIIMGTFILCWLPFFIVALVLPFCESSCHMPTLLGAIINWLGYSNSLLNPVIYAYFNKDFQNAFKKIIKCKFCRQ
Protocol: as §1
as §3, with “Association kinetics were performed at 5 different radioligand concentrations optimized for each receptor (see Table 3 below) to determine 5 different kobs.” left out
Determination of the Koff constant. […] The samples were incubated as reported in Table 4 below at a temperature optimized for each receptor until binding equilibrium was reached as determined by the association kinetics experiment. […] After washing the filters 5 times with 0.5 mL of ice-cold washing buffer, 50 μL of Microscint 20 (Packard) were added to the filters and the plates were incubated 15 min on an orbital shaker and then counted for 1 min/well. […]
(§5) Determination of IC50 and Ki constant for each test compound. […] After washing the filters 5 times with 0.5 mL of ice-cold washing buffer, 50 μL of Microscint 20 (Packard) were added to the filters and the plates were incubated 15 min on an orbital shaker and then counted for 1 min/well. […]
(§6) Determination of kon and koff constants for each test compound. Each compound was first assessed in a pilot experiment to evaluate its effect on the kinetic binding of each receptor-radioligand pair. […]

human 5-HT2B receptor = molecular target: T3, human 5-HT2B receptor (Homo sapiens, UniProt P41595); settings: 5-HT2B
T3 construct: purchased Euroscreen; host or cells: CHO-K1
Protocol: as §1, §2, §3, §4, §5, §6

T3 sequence (P41595 whole entry): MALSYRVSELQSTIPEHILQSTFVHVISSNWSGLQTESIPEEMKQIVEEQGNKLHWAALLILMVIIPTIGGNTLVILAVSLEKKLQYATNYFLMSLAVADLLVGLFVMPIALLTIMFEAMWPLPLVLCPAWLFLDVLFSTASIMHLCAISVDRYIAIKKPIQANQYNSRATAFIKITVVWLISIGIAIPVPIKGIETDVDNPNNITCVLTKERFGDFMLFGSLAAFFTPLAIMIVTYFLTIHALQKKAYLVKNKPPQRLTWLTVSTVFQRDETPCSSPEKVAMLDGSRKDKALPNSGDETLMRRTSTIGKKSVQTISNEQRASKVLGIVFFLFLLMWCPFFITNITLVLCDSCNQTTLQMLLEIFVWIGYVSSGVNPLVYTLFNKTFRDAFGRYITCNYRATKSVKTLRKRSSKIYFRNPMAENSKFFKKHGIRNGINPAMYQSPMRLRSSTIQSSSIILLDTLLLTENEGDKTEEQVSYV
T1 sequence (P28221 whole entry): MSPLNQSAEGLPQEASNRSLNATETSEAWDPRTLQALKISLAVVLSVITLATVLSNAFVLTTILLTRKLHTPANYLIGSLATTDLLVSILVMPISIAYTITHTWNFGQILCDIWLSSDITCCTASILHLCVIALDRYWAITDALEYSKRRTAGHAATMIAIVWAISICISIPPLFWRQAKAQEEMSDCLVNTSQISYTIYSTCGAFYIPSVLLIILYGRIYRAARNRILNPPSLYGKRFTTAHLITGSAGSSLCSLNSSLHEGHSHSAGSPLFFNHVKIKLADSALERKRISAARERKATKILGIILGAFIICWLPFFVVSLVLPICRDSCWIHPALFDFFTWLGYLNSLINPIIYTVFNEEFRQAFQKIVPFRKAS

## CNS(=O)(=O)Cc1ccc2[nH]cc(CCN(C)C)c2c1 [Sumatriptan, sumatriptan]
Human 5-HT1D receptor
  Avg Dissociation half-life: 5.4 min
Human 5-HT1A receptor
  Avg Dissociation half-life: 65.4 min
Human 5-HT2B receptor
  Avg Dissociation half-life: 22.2 min
Human 5-HT2B receptor; [3H]-Mesulergine, read-out: IC50 from binding assay
  IC50: 19.9 µM
